Laboratory results reported in ChEMBL document CHEMBL6182948 (J Med Chem, 2025).

Experiments:
[1] = molecular target: T1, Cytochrome P450 1A2 (Homo sapiens, UniProt P05177); assay: Inhibition of human recombinant CYP1A2 using 7-ethoxyresorufin as substrate incubated under dark condition for 45 mins in presence of NADPH by EROD fluorescence assay; assay type: ADME
T1 sequence (P05177 whole entry): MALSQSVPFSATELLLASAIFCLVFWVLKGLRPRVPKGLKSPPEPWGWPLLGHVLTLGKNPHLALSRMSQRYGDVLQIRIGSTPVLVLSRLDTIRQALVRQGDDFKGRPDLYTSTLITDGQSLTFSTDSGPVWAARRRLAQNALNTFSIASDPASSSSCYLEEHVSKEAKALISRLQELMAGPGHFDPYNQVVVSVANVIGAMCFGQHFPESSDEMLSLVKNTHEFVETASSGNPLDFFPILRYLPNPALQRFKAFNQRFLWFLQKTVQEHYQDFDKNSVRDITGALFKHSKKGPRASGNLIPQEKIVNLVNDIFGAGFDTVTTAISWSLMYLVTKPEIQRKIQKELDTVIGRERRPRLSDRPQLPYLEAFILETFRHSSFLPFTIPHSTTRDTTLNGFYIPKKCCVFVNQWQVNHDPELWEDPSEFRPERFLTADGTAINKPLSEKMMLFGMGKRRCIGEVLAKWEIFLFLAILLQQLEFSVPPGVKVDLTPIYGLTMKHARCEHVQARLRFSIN

[2] = molecular target: T2, Cytochrome P450 1A1 (Homo sapiens, UniProt P04798); assay: Inhibition of human recombinant CYP1A1 using 7-ethoxyresorufin as substrate incubated under dark condition for 15 mins in presence of NADPH by EROD fluorescence assay; assay type: ADME
T2 sequence (P04798 whole entry): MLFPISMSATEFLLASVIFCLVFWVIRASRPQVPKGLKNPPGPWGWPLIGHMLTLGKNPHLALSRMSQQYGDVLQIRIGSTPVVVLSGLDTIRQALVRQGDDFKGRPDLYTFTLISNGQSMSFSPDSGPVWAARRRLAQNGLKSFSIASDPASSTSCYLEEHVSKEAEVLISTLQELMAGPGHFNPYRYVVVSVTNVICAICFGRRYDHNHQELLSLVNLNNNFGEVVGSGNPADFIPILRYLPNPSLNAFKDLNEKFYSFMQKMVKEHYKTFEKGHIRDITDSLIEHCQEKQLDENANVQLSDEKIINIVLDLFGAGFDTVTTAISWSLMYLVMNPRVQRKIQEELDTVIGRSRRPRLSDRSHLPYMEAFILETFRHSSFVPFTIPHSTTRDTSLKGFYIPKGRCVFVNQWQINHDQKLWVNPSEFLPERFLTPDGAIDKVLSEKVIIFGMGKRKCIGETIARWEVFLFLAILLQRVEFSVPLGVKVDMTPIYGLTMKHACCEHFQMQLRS

[3] = organism: Homo sapiens; assay: Selectivity index, ratio of IC50 for human recombinant CYP1A1 to IC50 for human recombinant CYP1B1 using 7-ethoxyresorufin as substrate
[4] = molecular target: T3, Cytochrome P450 1B1 (Homo sapiens, UniProt Q16678); assay: Inhibition of human recombinant CYP1B1 using 7-ethoxyresorufin as substrate incubated under dark condition for 30 mins in presence of NADPH by EROD fluorescence assay; assay type: ADME
T3 sequence (Q16678 whole entry): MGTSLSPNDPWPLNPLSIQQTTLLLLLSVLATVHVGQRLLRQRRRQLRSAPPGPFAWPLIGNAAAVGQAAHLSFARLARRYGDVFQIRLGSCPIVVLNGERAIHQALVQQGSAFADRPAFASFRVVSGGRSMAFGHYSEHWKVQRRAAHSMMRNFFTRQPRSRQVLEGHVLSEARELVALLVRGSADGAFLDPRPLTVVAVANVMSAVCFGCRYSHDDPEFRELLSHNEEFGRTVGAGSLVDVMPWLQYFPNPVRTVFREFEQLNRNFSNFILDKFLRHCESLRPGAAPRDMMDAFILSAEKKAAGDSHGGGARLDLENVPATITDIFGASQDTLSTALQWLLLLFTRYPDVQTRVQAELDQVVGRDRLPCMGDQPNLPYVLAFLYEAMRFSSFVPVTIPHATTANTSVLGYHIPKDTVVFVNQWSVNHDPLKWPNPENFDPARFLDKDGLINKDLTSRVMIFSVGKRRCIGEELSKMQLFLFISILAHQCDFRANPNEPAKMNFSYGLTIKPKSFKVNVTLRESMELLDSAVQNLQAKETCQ

[5] = organism: Homo sapiens; assay: Selectivity index, ratio of IC50 for human recombinant CYP1A2 to IC50 for human recombinant CYP1B1 using 7-ethoxyresorufin as substrate

| Structure (SMILES) | IC50 [1] [nM] | IC50 [2] [nM] | Ratio IC50 [3] | IC50 [4] [nM] | Ratio IC50 [5] |
| --- | --- | --- | --- | --- | --- |
| O=C(Nc1ccc(C(F)(F)F)cc1)c1nc(-c2ccc(F)cc2)cs1 | 608 | 346 | 323 | 1.07 | 567 |
| O=C(Nc1cc(Cl)cc(Cl)c1)c1nc(-c2ccc(Cl)cc2)cs1 | 1330 | 386 | 266 | 1.45 | 912 |
| NC(=O)c1cccc(-c2csc(C(=O)Nc3cc(Cl)cc(Cl)c3)n2)c1 | > 100000 | 1340 | 116 | 11.6 | > 8640 |
| O=C(Nc1ccc(OC(F)F)cc1)c1nc(-c2cccc(F)c2)cs1 | 688 | 143 | 7170 | 0.02 | 34400 |
| N#Cc1ccc(-c2csc(C(=O)Nc3cc(Cl)cc(Cl)c3)n2)cn1 | 5550 | 72 | 6.2 | 11.5 | 481 |
| Cc1ccc(-c2csc(C(=O)Nc3cc(Cl)cc(Cl)c3)n2)cc1 | 14700 | 566 | 55.1 | 10.3 | 1430 |
| Cc1ccccc1-c1csc(C(=O)Nc2cc(Cl)cc(Cl)c2)n1 | 601 | 266 | 4.3 | 62 | 9.7 |
| O=C(Nc1cc(Cl)cc(Cl)c1)c1nc(-c2ccc([N+](=O)[O-])cc2)cs1 | 38400 | > 100000 | > 3650 | 27.4 | 1400 |
| O=C(Nc1cc(Cl)cc(Cl)c1)c1nc(-c2ccc(Br)cc2)cs1 | 4390 | > 100000 | > 3790 | 26.4 | 167 |
| O=C(Nc1ccc(I)cc1)c1nc(-c2cccc(F)c2)cs1 | 324 | 150 | 104 | 1.44 | 225 |
| O=C(Nc1ccc(F)cc1F)c1nc(-c2ccc(F)cc2)cs1 | 213 | 404 | 437 | 0.93 | 230 |
| COc1cc(NC(=O)c2nc(-c3cccc(F)c3)cs2)cc(OC)c1 | 7240 | 474 | 65.1 | 7.29 | 993 |
| O=C(Nc1cc(Cl)cc(Cl)c1)c1nc(-c2ccc(F)cc2)c(-c2ccccc2)s1 | > 100000 | 121 | 0.1 | 1070 | > 93.7 |
| COc1ccc(-c2csc(C(=O)Nc3cc(Cl)cc(Cl)c3)n2)cc1 | 17100 | > 100000 | > 454 | 220 | 77.6 |
| Cc1sc(C(=O)Nc2cc(Cl)cc(Cl)c2)nc1-c1cccc(F)c1 | 1410 | 122 | 138 | 0.88 | 1600 |
| Cc1sc(C(=O)Nc2cc(Cl)cc(Cl)c2)nc1-c1ccc(F)cc1 | 3650 | 69.2 | 55.4 | 1.25 | 2920 |
| O=C(Nc1ccc(OC(F)F)cc1)c1nc(-c2ccc(Cl)cc2)cs1 | 330 | 58.3 | 65.1 | 0.9 | 368 |
| Cc1cccc(-c2csc(C(=O)Nc3cc(Cl)cc(Cl)c3)n2)c1 | > 10000 | 2330 | 53.4 | 43.7 | > 229 |
| O=C(Nc1cc(Cl)cc(Cl)c1)c1nc(-c2ccnc(Cl)c2)cs1 | > 100000 | 68.3 | 16 | 4.28 | > 23400 |

| Structure (SMILES) | IC50 [1] [nM] | IC50 [2] [nM] | Ratio IC50 [3] | IC50 [4] [nM] | Ratio IC50 [5] |
| --- | --- | --- | --- | --- | --- |
| Nc1ccc(-c2csc(C(=O)Nc3cc(Cl)cc(Cl)c3)n2)cc1 | 8340 | 962 | 6.8 | 142 | 58.7 |
| O=C(Nc1ccc(C(F)(F)F)cc1)c1nc(-c2cccc(Cl)c2)cs1 | 670 | 52.8 | 99.6 | 0.53 | 1270 |
| NC(=O)c1ccc(-c2csc(C(=O)Nc3ccc(C(F)(F)F)cc3)n2)cc1 | > 10000 | 141 | 170 | 0.83 | > 12100 |
| NC(=O)c1ccc(-c2csc(C(=O)Nc3ccc(OC(F)F)cc3)n2)cc1 | 5730 | 106 | 104 | 1.03 | 5590 |
| Cc1sc(C(=O)Nc2cc(Cl)cc(Cl)c2)nc1-c1cccc(Cl)c1 | > 10000 | 43.1 | 25.2 | 1.71 | > 5850 |
| N#Cc1cccc(-c2csc(C(=O)Nc3ccc(C(F)(F)F)cc3)n2)c1 | > 100000 | 21.4 | 7.3 | 2.93 | > 34100 |
| Cc1sc(C(=O)Nc2ccc(C(F)(F)F)cc2)nc1-c1cccc(Cl)c1 | > 10000 | 135 | 71.8 | 1.88 | > 5320 |
| O=C(Nc1cc(Cl)cc(Cl)c1)c1nc(-c2ccc(F)cc2)cs1 | 4240 | 277 | 195 | 1.42 | 2990 |
| NC(=O)c1ccc(-c2csc(C(=O)Nc3cc(Cl)cc(Cl)c3)n2)cc1 | > 10000 | > 100000 | > 12500 | 7.97 | > 1250 |
| O=C(Nc1ccc(Cl)cc1Cl)c1nc(-c2cccc(F)c2)cs1 | 2380 | 149 | 77.4 | 1.92 | 1240 |
| O=C(Nc1cc(Cl)cc(Cl)c1)c1nc(-c2ccc(-c3ccccc3)cc2)cs1 | 12700 | 9310 | 4.8 | 1950 | 6.5 |
| N#Cc1ccc(-c2csc(C(=O)Nc3ccc(OC(F)F)cc3)n2)cc1 | > 100000 | 113 | 114 | 0.99 | > 101000 |
| NC(=O)c1cccc(-c2csc(C(=O)Nc3ccc(C(F)(F)F)cc3)n2)c1 | 5770 | 44.2 | 20.2 | 2.18 | 2640 |
| O=C(Nc1cc(Cl)cc(Cl)c1)c1nc(-c2ccccc2F)cs1 | 178 | 129 | 107 | 1.21 | 147 |
| O=C(Nc1ccc(C(F)(F)F)cc1)c1nc(-c2cccc(F)c2)cs1 | 422 | 123 | 426 | 0.29 | 1470 |
| N#Cc1cccc(-c2csc(C(=O)Nc3ccc(OC(F)F)cc3)n2)c1 | > 50000 | 70 | 7.8 | 9.02 | > 5550 |
| Cc1sc(C(=O)Nc2ccc(OC(F)F)cc2)nc1-c1cccc(Cl)c1 | > 100000 | 128 | 41.7 | 3.07 | > 32600 |
| O=C(Nc1cc(Cl)cc(Cl)c1)c1nc(-c2ccc(I)cc2)cs1 | 1590 | > 10000 | > 445 | 22.5 | 71 |
